The results in this text go back to patent publication EP0062407A1, “Therapeutic compounds containing beta-lactams” (BEECHAM GROUP PLC, priority 1981, dated 1982).

In one experiment the test system is Staph. aureus Russell. Description: Synergistic activity in vitro with amoxycillin. Format: cell-based, Staphylococcus aureus. Also on record: Synergistic activity in vitro: unit not given beside the values. Particulars: for Synergistic activity in vitro: Staph. aureus Russell.
For another experiment, the system named is Klebsiella aerogenes E70. Description: Synergistic activity in vitro with amoxycillin. It is filed as cell-based. Set-up: Synergistic activity in vitro: unit not given beside the values. Particulars: for Synergistic activity in vitro: Klebsiella aerogenes E70.
In the next experiment the test system is E. coli JT 39. Description: Synergistic activity in vitro with amoxycillin. It is filed as cell-based, Escherichia coli. The note with it: for Synergistic activity in vitro: E. coli JT 39.
Another experiment relates to S. aureus Russell. Description: Antibacterial activity of quaternary amine derivatives alone. It is filed as cell-based. Particulars: Staphylococcus aureus, compound alone.
Another experiment relates to K. aerogenes E70. The experiment is described as above. Format: cell-based. The note with it: Klebsiella aerogenes, compound alone.
The subject of the next experiment is E. coli JT39. The description is as above. Format: cell-based. The note with it: Escherichia coli, compound alone.
Where [1] appears, read: amoxycillin alone, no inhibitor.
The mark [2] stands for this setting: amoxycillin with inhibitor, Inhibitor Conc 1.
Where [3] appears, read: amoxycillin with inhibitor, Inhibitor Conc 5.

The structures appear in SMILES notation. ≈ marks a conversion by molar mass, not a printed value.

Turning to `CC1(C)S[C@@H]2[C@H](NC(=O)[C@H](N)c3ccc(O)cc3)C(=O)N2[C@H]1C(=O)O` [Amoxycillin, reference compound], the “MIC µg/ml amoxycillin” value was 500 µg/mL with Staph. aureus Russell (S. aureus Russell, amoxycillin alone); 1000 µg/mL in the experiment on Klebsiella aerogenes E70 (K. aerogenes E70, amoxycillin alone); 2000 µg/mL in the experiment on E. coli JT 39 (E. coli JT39, amoxycillin alone). The figures for the “Synergistic activity in vitro” value in the experiment with Staph. aureus Russell (setting [1]), with Klebsiella aerogenes E70 (setting [1]) and in the experiment with E. coli JT 39 (setting [1]) were 1000, 500 and not below 2000, respectively.
With `C[N+](C)(C/C=C1\O[C@@H]2CC(=O)N2[C@H]1C(=O)[O-])Cc1ccccc1` [Example No 1, 9-(N-Benzyl-N,N-dimethyl)ammonio-9-deoxyclavulanate], the “Synergistic activity in vitro” value with Staph. aureus Russell (setting [2]) turned out to be 0.62; with Staph. aureus Russell (setting [3]) it was 0.08; in the experiment on Klebsiella aerogenes E70 (setting [2]), 6.2; in the experiment on Klebsiella aerogenes E70 (setting [3]), 3.1; in the experiment on E. coli JT 39 (setting [2]), 8; in the experiment on E. coli JT 39 (setting [3]) it was 2.
Turning to `CC[N+](C)(C/C=C1\O[C@@H]2CC(=O)N2[C@H]1C(=O)[O-])Cc1ccccc1` (some centres unmarked) [Example No 2, 9-(N-Benzyl-N-ethvl-N-methyl)ammonio-9-deoxyclavulanate], the “Synergistic activity in vitro” value in the experiment with Staph. aureus Russell (setting [2]) turned out to be 0.16; in the experiment on Klebsiella aerogenes E70 (setting [2]) it was 12.5; with Klebsiella aerogenes E70 (setting [3]), 3.1; in the experiment with E. coli JT 39 (setting [2]), 16; with E. coli JT 39 (setting [3]), 4.
Turning to `CC[N+](C)(C)C/C=C1\O[C@@H]2CC(=O)N2[C@H]1C(=O)[O-]` [Example No. 5, 9-(N,N-dimethyl-N-ethyl)ammonio-9-deoxyclavulanate], the MIC in the experiment with S. aureus Russell amounted to 31 µg/mL (≈ 122 µM); with K. aerogenes E70, 250 µg/mL (≈ 983 µM); against E. coli JT39, 62 µg/mL (≈ 244 µM).
With `CC[N+](CC)(CC)C/C=C1\O[C@@H]2CC(=O)N2[C@H]1C(=O)[O-]` [Example No. 6, 9-N,N,N-triethylammonio-9-deoxyclavulanate], the figures for the minimum inhibitory concentration (MIC) against S. aureus Russell, with K. aerogenes E70 and in the experiment with E. coli JT39 were 31 µg/mL (≈ 110 µM), 500 µg/mL (≈ 1770 µM) and 125 µg/mL (≈ 443 µM), respectively.
On to `C[N+](C)(C)C/C=C1\O[C@@H]2CC(=O)N2[C@H]1C(=O)[O-]` [Example No. 7, 9-N,N,N,-trimethylammonio-9-deoxyclavulanate], for which the minimum inhibitory concentration (MIC) amounted to 4 µg/mL (≈ 16.6 µM) with S. aureus Russell, 62.5 µg/mL (≈ 260 µM) in the experiment on K. aerogenes E70 and 16 µg/mL (≈ 66.6 µM) in the experiment with E. coli JT39.
